Tests used:
[1] = biological target: T1, Protein deacetylase HDAC6 (Homo sapiens, UniProt Q9UBN7)
T1 sequence (Q9UBN7 whole entry): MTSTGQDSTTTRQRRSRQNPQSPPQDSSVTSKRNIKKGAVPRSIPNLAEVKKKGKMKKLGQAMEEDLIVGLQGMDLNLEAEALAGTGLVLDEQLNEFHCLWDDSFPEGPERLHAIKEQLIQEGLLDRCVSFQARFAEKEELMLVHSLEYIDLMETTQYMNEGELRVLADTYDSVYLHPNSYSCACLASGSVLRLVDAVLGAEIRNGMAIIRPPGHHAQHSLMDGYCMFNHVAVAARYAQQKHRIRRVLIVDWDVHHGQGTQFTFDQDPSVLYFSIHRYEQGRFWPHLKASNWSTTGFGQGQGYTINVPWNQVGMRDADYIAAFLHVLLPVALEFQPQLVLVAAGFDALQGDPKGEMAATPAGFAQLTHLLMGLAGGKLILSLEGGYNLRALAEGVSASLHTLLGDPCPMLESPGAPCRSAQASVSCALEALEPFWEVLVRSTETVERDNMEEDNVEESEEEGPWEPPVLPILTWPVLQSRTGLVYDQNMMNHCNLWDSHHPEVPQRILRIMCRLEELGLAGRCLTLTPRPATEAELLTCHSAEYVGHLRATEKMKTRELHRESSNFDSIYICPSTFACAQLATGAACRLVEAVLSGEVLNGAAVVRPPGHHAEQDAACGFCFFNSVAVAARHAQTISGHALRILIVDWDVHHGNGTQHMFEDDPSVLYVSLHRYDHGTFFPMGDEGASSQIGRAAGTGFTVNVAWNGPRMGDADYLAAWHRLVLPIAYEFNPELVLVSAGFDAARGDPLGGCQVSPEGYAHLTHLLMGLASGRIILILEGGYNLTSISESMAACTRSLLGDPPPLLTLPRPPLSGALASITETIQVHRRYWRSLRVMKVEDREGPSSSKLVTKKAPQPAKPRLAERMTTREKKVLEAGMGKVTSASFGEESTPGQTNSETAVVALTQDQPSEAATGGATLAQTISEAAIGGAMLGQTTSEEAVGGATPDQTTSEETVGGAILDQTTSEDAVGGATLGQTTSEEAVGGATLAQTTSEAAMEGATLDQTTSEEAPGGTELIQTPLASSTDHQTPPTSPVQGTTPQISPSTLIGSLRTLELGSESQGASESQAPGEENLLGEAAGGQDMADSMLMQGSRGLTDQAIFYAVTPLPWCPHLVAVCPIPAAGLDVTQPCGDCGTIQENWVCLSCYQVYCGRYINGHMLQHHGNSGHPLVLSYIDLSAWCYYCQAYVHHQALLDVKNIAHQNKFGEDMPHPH
Description: Inhibition of human recombinant HDAC6 using AMC labeled AC-peptide as substrate incubated for 1 hr by fluorescence analysis

Histone deacetylase 1 = Histone deacetylase 1 (Homo sapiens, UniProt Q13547)
Sequence of Histone deacetylase 1 (Q13547 whole entry): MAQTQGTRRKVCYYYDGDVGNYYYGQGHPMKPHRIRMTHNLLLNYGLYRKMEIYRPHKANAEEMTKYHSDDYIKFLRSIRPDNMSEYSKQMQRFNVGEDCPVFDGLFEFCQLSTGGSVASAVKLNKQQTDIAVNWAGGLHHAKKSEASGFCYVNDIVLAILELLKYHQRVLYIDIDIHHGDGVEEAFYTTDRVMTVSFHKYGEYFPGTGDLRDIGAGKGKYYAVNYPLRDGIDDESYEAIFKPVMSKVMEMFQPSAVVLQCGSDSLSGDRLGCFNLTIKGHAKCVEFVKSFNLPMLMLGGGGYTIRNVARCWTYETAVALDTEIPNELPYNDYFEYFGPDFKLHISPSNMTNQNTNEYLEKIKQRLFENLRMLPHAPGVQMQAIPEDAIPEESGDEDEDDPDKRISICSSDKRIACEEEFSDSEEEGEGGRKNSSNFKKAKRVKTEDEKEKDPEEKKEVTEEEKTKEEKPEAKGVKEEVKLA
Description: Inhibition of human recombinant HDAC1 using AMC labeled AC-peptide as substrate incubated for 1 hr by fluorescence analysis

Histone deacetylase 8 = biological target: T2, Histone deacetylase 8 (Homo sapiens, UniProt Q9BY41)
T2 sequence (Q9BY41 whole entry): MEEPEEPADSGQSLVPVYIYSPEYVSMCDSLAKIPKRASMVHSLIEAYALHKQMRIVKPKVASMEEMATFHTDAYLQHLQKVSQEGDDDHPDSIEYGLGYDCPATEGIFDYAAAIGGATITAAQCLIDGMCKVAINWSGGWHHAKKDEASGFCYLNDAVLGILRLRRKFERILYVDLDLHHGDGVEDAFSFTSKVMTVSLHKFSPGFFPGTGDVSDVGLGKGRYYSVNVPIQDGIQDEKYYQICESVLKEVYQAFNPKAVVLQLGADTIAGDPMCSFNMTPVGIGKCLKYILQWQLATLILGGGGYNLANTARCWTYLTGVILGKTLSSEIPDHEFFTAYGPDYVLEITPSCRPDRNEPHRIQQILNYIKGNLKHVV
Description: Inhibition of human recombinant HDAC8 using AMC labeled AC-peptide as substrate incubated for 1 hr by fluorescence analysis

Mus musculus [2] = test: Toxicity in Balb/c nude mouse xenografted with human HCT116 cells assessed as change in body weight at 50 mg/kg, ip q2d for 9 days; format: organism-based, HCT-116; settings: in vivo, 216 h
Mus musculus [3] = test: Toxicity in Balb/c nude mouse xenografted with human HCT116 cells assessed as change in body weight at 100 mg/kg, po q2d for 8 days; format: organism-based, HCT-116; settings: in vivo, 192 h
Mus musculus [4] = test: Toxicity in Balb/c nude mouse xenografted with human HCT116 cells assessed as death at 100 mg/kg, po q2d for 8 days; format: organism-based, HCT-116; settings: in vivo, 192 h
Mus musculus [5] = test: Toxicity in NOD/SCID mouse xenografted with human MV4-11 cells assessed as death at 50 mg/kg, ip q2d for 12 days; format: organism-based; settings: in vivo, 288 h
Mus musculus [6] = test: Toxicity in Balb/c nude mouse xenografted with human HCT116 cells assessed as death at 50 mg/kg, ip q2d for 9 days; format: organism-based, HCT-116; settings: in vivo, 216 h
[7] = Antitumor activity against human HCT116 cells xenografted in Balb/c nude mouse assessed as tumor mass change at 100 mg/kg, po q2d for 8 days; format: functional, HCT-116
MV4-11 = test: Antitumor activity against human MV4-11 cells xenografted in NOD/SCID mouse assessed as tumor mass change at 50 mg/kg, ip q2d for 12 days; format: functional
[8] = Antitumor activity against human HCT116 cells xenografted in Balb/c nude mouse assessed as tumor mass change at 50 mg/kg, ip q2d for 9 days; format: functional, HCT-116

SMILES | IC50 [1] [nM] | IC50 (Histone deacetylase 1) [nM] | IC50 (Histone deacetylase 8) [nM] | further results
COc1ccc(N(C)c2nc(C)nc3ccccc23)cc1OCC(=O)NO | > 1000 | > 1000 | > 1000 | –
O=C(CCCCCCC(=O)Nc1ccccc1)NO [VORINOSTAT] | – | – | – | Activity (Mus musculus [2]): -3%; Activity (Mus musculus [3]): -6.1%; Activity (Mus musculus [4]): Non-toxic; Activity (Mus musculus [5]): Non-toxic; Activity (Mus musculus [6]): Non-toxic; Activity [7]: 59.2%; Activity (MV4-11): 0%; Activity [8]: 36.6%
Cc1nc2c(c(N(C)c3ccc(OCCCCC(=O)NO)cc3)n1)CCC2 | 63 | 212 | 1990 | –
COc1ccc(N(C)c2nc(C)nc3ccccc23)cc1OCCCCC(=O)NO | 111 | 253 | – | –
Cc1nc2c(c(N(C)c3ccc(OCCCC(=O)NO)cc3)n1)CCC2 | 40 | 195 | 6190 | –

Continued, in another order:

IC50 [1] [nM] | IC50 (Histone deacetylase 1) [nM] | IC50 (Histone deacetylase 8) [nM] | SMILES | further results
> 1000 | > 1000 | > 1000 | Cc1nc(N(C)c2cccc(OCC(=O)NO)c2)c2ccccc2n1 | –
> 1000 | 306 | > 1000 | Cc1nc(N(C)c2cccc(OCCCCC(=O)NO)c2)c2ccccc2n1 | –
– | 204 | – | Cc1nc(N(C)c2ccc(OCCCCC(=O)NO)cc2)c2ccccc2n1 | –
> 1000 | > 1000 | > 1000 | Cc1nc(N(C)c2cccc(OCCCC(=O)NO)c2)c2ccccc2n1 | –
